Drawing on ChEMBL document CHEMBL5518233, “Design and Synthesis of 3-(2H-Chromen-3-yl)-5-aryl-1,2,4-oxadiazole Derivatives as Novel Toll-like Receptor 2/1 Agonists That Inhibit Lung Cancer In Vitro and In Vivo” (J Med Chem, 2024), this text covers Activity, inhibition in vivo and EC50 for four compounds.

Where a SMILES comes first, the peptide text is derived from it. The star is where a group is joined. X1 = CCCCCCCCCCCCCCCC(=O)OCC(C*)OC(=O)CCCCCCCCCCCCCCC; Palmitoyl = CCCCCCCCCCCCCCCC(=O)*

Assay [1] has as its target T1, Toll-like receptor 1/2 (Homo sapiens, UniProt O60603+Q15399). Nature of the assay: Agonist activity at human TLR2/TLR1 transfected in HEK293T cells assessed as relative light unit at 100 ng/ml incubated for 24 hrs by dual luciferase reporter gene assay. In kind it is cell-based. The note with it: filed as agonist. For orientation: A reporter such as luciferase makes a cellular process visible.

Another assay concerns A549. Nature of the assay: Antitumor activity against human A549 cells xenografted with BALB/c mouse assessed as tumor growth inhibition at 5 mg/kg,ip administrated every 2 days for 30 days relative to control. In kind it is functional. The note with it: A549, 720 h, time 30 day, read-out: TGI.
Assay [2] can be described thus: Antitumor activity against mouse Lewis lung carcinoma cell line xenografted with C57BL/6J mouse assessed as tumor growth inhibition at 5 mg/kg,ip administrated every 2 days for 21 days relative to control. In kind it is functional. The note with it: 504 h, time 21 day, read-out: TGI.
For assay [3], the target named is T1, Toll-like receptor 1/2. The assay is described as follows: Agonist activity at human TLR2/TLR1 transfected in HEK293T cells incubated for 24 hrs by dual luciferase reporter gene assay. In kind it is cell-based.

T1 sequence (O60603 whole entry): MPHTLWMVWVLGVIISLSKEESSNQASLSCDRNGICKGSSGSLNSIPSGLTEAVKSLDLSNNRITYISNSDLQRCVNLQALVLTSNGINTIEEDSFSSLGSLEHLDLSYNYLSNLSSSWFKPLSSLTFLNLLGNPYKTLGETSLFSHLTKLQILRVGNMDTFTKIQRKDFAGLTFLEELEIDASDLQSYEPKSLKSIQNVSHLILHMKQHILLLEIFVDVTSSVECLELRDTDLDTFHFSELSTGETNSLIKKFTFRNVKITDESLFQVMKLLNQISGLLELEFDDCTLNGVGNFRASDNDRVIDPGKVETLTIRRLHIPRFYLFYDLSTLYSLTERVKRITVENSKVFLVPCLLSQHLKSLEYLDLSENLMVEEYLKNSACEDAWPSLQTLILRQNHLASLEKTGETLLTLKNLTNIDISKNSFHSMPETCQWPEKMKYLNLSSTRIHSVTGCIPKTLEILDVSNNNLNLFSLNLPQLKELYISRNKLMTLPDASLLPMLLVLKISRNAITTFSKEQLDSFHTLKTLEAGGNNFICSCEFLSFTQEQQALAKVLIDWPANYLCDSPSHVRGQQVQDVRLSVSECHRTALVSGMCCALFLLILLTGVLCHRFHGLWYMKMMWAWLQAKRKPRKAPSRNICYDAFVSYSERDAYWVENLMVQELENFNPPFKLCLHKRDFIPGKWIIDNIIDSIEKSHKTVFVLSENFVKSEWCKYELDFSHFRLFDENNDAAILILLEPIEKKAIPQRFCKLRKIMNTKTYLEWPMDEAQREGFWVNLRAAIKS
T1 sequence (Q15399 whole entry): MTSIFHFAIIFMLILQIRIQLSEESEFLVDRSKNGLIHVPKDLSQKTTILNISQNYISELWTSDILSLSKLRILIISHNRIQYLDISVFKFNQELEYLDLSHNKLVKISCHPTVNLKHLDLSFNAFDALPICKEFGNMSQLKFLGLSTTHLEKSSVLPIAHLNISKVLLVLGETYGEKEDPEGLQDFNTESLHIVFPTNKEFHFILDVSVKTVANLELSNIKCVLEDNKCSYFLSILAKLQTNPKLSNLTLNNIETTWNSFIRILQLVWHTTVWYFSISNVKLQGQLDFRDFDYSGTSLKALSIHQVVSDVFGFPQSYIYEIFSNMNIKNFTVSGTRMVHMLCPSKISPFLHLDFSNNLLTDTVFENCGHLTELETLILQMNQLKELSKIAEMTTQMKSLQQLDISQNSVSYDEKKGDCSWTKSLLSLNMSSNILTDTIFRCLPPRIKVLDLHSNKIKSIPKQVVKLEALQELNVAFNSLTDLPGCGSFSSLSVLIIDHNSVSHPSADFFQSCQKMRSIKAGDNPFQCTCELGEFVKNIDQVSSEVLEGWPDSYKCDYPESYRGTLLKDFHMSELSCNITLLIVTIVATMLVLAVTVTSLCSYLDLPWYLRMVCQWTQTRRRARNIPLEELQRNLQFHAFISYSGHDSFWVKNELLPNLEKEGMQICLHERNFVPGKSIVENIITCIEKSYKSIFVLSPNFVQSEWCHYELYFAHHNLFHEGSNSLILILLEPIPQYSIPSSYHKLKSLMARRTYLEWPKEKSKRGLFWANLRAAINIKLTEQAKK

`CCCCCCCCCCCCCCCC(=O)N[C@@H](CSCC(COC(=O)CCCCCCCCCCCCCCC)OC(=O)CCCCCCCCCCCCCCC)C(=O)N[C@@H](CO)C(=O)N[C@@H](CCCCN)C(=O)N[C@@H](CCCCN)C(=O)N[C@@H](CCCCN)C(=O)N[C@@H](CCCCN)C(=O)O` (stereo partly specified) (Palmitoyl-C(X1)SKKKK-OH): on Toll-like receptor 1/2 [1], the Activity worked out at 7.95 RLU.
`O=c1[nH]cc(F)c(=O)[nH]1` [FLUOROURACIL]: the inhibition in vivo at 5 mg/kg was determined as 77.5% in the assay on A549 and 79.4% in assay [2].
For orientation: EC50 means the concentration at which the effect is half-maximal. Read a low EC50 as a more potent agent. As for `CNc1ccc([N+](=O)[O-])cc1-n1cnc(-c2ccc(C(F)(F)F)cc2O)c1`, on Toll-like receptor 1/2 [3], a half-maximal effect (EC50) was put at 35 nM. In addition, in assay [2], the inhibition in vivo at 5 mg/kg came out at 63.5%.
In turn, `O=[N+]([O-])c1ccc(F)c(-c2nc(C3=Cc4ccccc4OC3)no2)c1` showed a 50% effective concentration (EC50) on Toll-like receptor 1/2 [3] of 30.1 nM.
